Data from US20230107642A1 (Erasca, Inc., priority 2020, published 2023).

Molecular target: T1, Cys12 of the KRAS 4B G12C protein (Homo sapiens, UniProt P01116, G12C)
T1 construct: This protein contained 188 amino acids in total, including an N-terminal 6-Histidine tag; made in house; host or cells: E. coli BL21
Test: In vitro covalent adduct formation (CAF) assay, LC-MS intact mass
Assay type: binding
Procedure, shortened: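 Percent covalent modification from intact-mass LC-MS, by relative free versus adducted protein (adducts within 1 Da of expected mass). Reaction: 10 μM compound with 5 μM E. coli-expressed, GDP-exchanged KRAS 4B G12C in TBS pH 7.4, 4% DMSO, 1 h at 22° C.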

Row | SMILES | % CAF 10 uM @ 60 min (10 uM compound, 60 min incubation) [%] | CAF (% binding after 60 min) [%]
1 | C=CC(=O)N1[C@H](C)CN(c2nc(=O)n3c4c(c(-c5cc(Cl)c(F)cc5F)c(C(F)(F)F)cc24)SC[C@@H]3COC)C[C@@H]1C (single isomer, unassigned) [Example 1140] | 93.9 | –
2 | C=CC(=O)N1[C@H](C)CN(c2nc(=O)n3c4c(c(-c5ccc(F)cc5F)c(C(F)(F)F)cc24)SC[C@H](N(C)C)C3)C[C@@H]1C [Example 1001, (3R)-8-((3S,5R)-4-acryloyl-3,5-dimethylpiperazin-1-yl)-11-(2,4-difluorophenyl)-3-(dimethylamino)-10-(trifluoromethyl)-3,4-dihydro-2H,6H-[1,4]thiazepino[2,3,4-ij]quinazolin-6-one] | – | 84
3 | C=CC(=O)N1CCN(c2nc(=O)n3c4c(c(-c5ccc(F)cc5)c(C(F)(F)F)cc24)SC[C@H](O)C3)CC1 [Example 1002, (R)-8-(4-acryloylpiperazin-1-yl)-11-(4-fluorophenyl)-3-hydroxy-10-(trifluoromethyl)-3,4-dihydro-2H,6H-[1,4]thiazepino[2,3,4-ij]quinazolin-6-one] | – | 97
4 | C=CC(=O)N1[C@H](C)CN(c2nc(=O)n3c4c(c(-c5ccc(F)cc5)c(C(F)(F)F)cc24)SC[C@@H](O)C3)C[C@@H]1C [Example 1003, (S)-8-((3S,5R)-4-acryloyl-3,5-dimethylpiperazin-1-yl)-11-(4-fluorophenyl)-3-hydroxy-10-(trifluoromethyl)-3,4-dihydro-2H,6H-[1,4]thiazepino[2,3,4-ij]quinazolin-6-one] | – | 95
5 | C=CC(=O)N1CCN(c2nc(=O)n3c4c(c(-c5ccc(F)cc5)c(C(F)(F)F)cc24)SC[C@@H](OCOC)C3)CC1 [Example 1004, (S)-8-(4-acryloylpiperazin-1-yl)-11-(4-fluorophenyl)-3-(methoxymethoxy)-10-(trifluoromethyl)-3,4-dihydro-2H,6H-[1,4]thiazepino[2,3,4-ij]quinazolin-6-one] | – | 97
6 | C=CC(=O)N1CCN(c2nc(=O)n3c4c(c(-c5ccc(F)cc5)c(C(F)(F)F)cc24)SC[C@H](OCOC)C3)CC1 [Example 1005, (R)-8-(4-acryloylpiperazin-1-yl)-11-(4-fluorophenyl)-3-(methoxymethoxy)-10-(trifluoromethyl)-3,4-dihydro-2H,6H-[1,4]thiazepino[2,3,4-ij]quinazolin-6-one] | – | 97
7 | C=CC(=O)N1CCN(c2nc(=O)n3c4c(c(-c5ccc(F)c(Cl)c5)c(C(F)(F)F)cc24)SC[C@H](OCOC)C3)CC1 [Example 1006, (R)-8-(4-acryloylpiperazin-1-yl)-11-(3-chloro-4-fluorophenyl)-3-(methoxymethoxy)-10-(trifluoromethyl)-3,4-dihydro-2H,6H-[1,4]thiazepino[2,3,4-ij]quinazolin-6-one] | – | 90
8 | C=CC(=O)N1CCN(c2nc(=O)n3c4c(c(-c5ccc(F)c(Cl)c5)c(C(F)(F)F)cc24)SC[C@@H](OCOC)C3)CC1 [Example 1007, (S)-8-(4-acryloylpiperazin-1-yl)-11-(3-chloro-4-fluorophenyl)-3-(methoxymethoxy)-10-(trifluoromethyl)-3,4-dihydro-2H,6H-[1,4]thiazepino[2,3,4-ij]quinazolin-6-one] | – | 97
9 | C=CC(=O)N1CCN(c2nc(=O)n3c4c(c(-c5cc(Cl)c(F)cc5F)c(C(F)(F)F)cc24)SC[C@H](OCOC)C3)CC1 [Example 1008, (3R)-8-(4-acryloylpiperazin-1-yl)-11-(5-chloro-2,4-difluorophenyl)-3-(methoxymethoxy)-10-(trifluoromethyl)-3,4-dihydro-2H,6H-[1,4]thiazepino[2,3,4-ij]quinazolin-6-one] | – | 92
10 | C=CC(=O)N1[C@H](C)CN(c2nc(=O)n3c4c(c(-c5ccc(F)cc5)c(C(F)(F)F)cc24)SC[C@H](OCOC)C3)C[C@@H]1C [Example 1009, (R)-8-((3S,5R)-4-acryloyl-3,5-dimethylpiperazin-1-yl)-11-(4-fluorophenyl)-3-(methoxymethoxy)-10-(trifluoromethyl)-3,4-dihydro-2H,6H-[1,4]thiazepino[2,3,4-ij]quinazolin-6-one] | – | 96
11 | C=CC(=O)N1[C@H](C)CN(c2nc(=O)n3c4c(c(-c5ccc(F)cc5)c(C(F)(F)F)cc24)SC[C@@H](OCOC)C3)C[C@@H]1C [Example 1010, (S)-8-((3S,5R)-4-acryloyl-3,5-dimethylpiperazin-1-yl)-11-(4-fluorophenyl)-3-(methoxymethoxy)-10-(trifluoromethyl)-3,4-dihydro-2H,6H-[1,4]thiazepino[2,3,4-ij]quinazolin-6-one] | – | 96
12 | C=CC(=O)N1[C@H](C)CN(c2nc(=O)n3c4c(c(-c5ccc(F)cc5F)c(C(F)(F)F)cc24)SC[C@H](OCOC)C3)C[C@@H]1C [Example 1011, (3R)-8-((3S,5R)-4-acryloyl-3,5-dimethylpiperazin-1-yl)-11-(2,4-difluorophenyl)-3-(methoxymethoxy)-10-(trifluoromethyl)-3,4-dihydro-2H,6H-[1,4]thiazepino[2,3,4-ij]quinazolin-6-one] | – | 97
13 | C=CC(=O)N1[C@H](C)CN(c2nc(=O)n3c4c(c(-c5ccc(F)cc5F)c(C(F)(F)F)cc24)SC[C@@H](OCOC)C3)C[C@@H]1C [Example 1012, (3S)-8-((3S,5R)-4-acryloyl-3,5-dimethylpiperazin-1-yl)-11-(2,4-difluorophenyl)-3-(methoxymethoxy)-10-(trifluoromethyl)-3,4-dihydro-2H,6H-[1,4]thiazepino[2,3,4-ij]quinazolin-6-one] | – | 95
14 | C=CC(=O)N1[C@H](C)CN(c2nc(=O)n3c4c(c(-c5ccc(F)c(Cl)c5)c(C(F)(F)F)cc24)SC[C@H](OCOC)C3)C[C@@H]1C [Example 1013, (R)-8-((3S,5R)-4-acryloyl-3,5-dimethylpiperazin-1-yl)-11-(3-chloro-4-fluorophenyl)-3-(methoxymethoxy)-10-(trifluoromethyl)-3,4-dihydro-2H,6H-[1,4]thiazepino[2,3,4-ij]quinazolin-6-one] | – | 95
15 | C=CC(=O)N1[C@H](C)CN(c2nc(=O)n3c4c(c(-c5ccc(F)c(Cl)c5)c(C(F)(F)F)cc24)SC[C@@H](OCOC)C3)C[C@@H]1C [Example 1014, (S)-8-((3S,5R)-4-acryloyl-3,5-dimethylpiperazin-1-yl)-11-(3-chloro-4-fluorophenyl)-3-(methoxymethoxy)-10-(trifluoromethyl)-3,4-dihydro-2H,6H-[1,4]thiazepino[2,3,4-ij]quinazolin-6-one] | – | 96
16 | C=CC(=O)N1[C@H](C)CN(c2nc(=O)n3c4c(c(-c5cc(Cl)c(F)cc5F)c(C(F)(F)F)cc24)SC[C@@H](OCOC)C3)C[C@@H]1C [Example 1015, (3S)-8-((3S,5R)-4-acryloyl-3,5-dimethylpiperazin-1-yl)-11-(5-chloro-2,4-difluorophenyl)-3-(methoxymethoxy)-10-(trifluoromethyl)-3,4-dihydro-2H,6H-[1,4]thiazepino[2,3,4-ij]quinazolin-6-one] | – | 84
17 | C=CC(=O)N1CCN(c2nc(=O)n3c4c(c(-c5ccc(F)cc5)c(C(F)(F)F)cc24)SC[C@H](OCCOC)C3)CC1 [Example 1016, (R)-8-(4-acryloylpiperazin-1-yl)-11-(4-fluorophenyl)-3-(2-methoxyethoxy)-10-(trifluoromethyl)-3,4-dihydro-2H,6H-[1,4]thiazepino[2,3,4-ij]quinazolin-6-one] | – | 98
18 | C=CC(=O)N1CCN(c2nc(=O)n3c4c(c(-c5ccc(F)cc5)c(C(F)(F)F)cc24)SC[C@@H](OCCOC)C3)CC1 [Example 1017, (S)-8-(4-acryloylpiperazin-1-yl)-11-(4-fluorophenyl)-3-(2-methoxyethoxy)-10-(trifluoromethyl)-3,4-dihydro-2H,6H-[1,4]thiazepino[2,3,4-ij]quinazolin-6-one] | – | 98
19 | C=CC(=O)N1CCN(c2nc(=O)n3c4c(c(-c5ccc(F)cc5F)c(C(F)(F)F)cc24)SC[C@H](OCCOC)C3)CC1 [Example 1018, (3R)-8-(4-acryloylpiperazin-1-yl)-11-(2,4-difluorophenyl)-3-(2-methoxyethoxy)-10-(trifluoromethyl)-3,4-dihydro-2H,6H-[1,4]thiazepino[2,3,4-ij]quinazolin-6-one] | – | 96
20 | C=CC(=O)N1CCN(c2nc(=O)n3c4c(c(-c5ccc(F)cc5F)c(C(F)(F)F)cc24)SC[C@@H](OCCOC)C3)CC1 [Example 1019, (3S)-8-(4-acryloylpiperazin-1-yl)-11-(2,4-difluorophenyl)-3-(2-methoxyethoxy)-10-(trifluoromethyl)-3,4-dihydro-2H,6H-[1,4]thiazepino[2,3,4-ij]quinazolin-6-one] | – | 97
21 | C=CC(=O)N1CCN(c2nc(=O)n3c4c(c(-c5ccc(F)c(Cl)c5)c(C(F)(F)F)cc24)SC[C@H](OCCOC)C3)CC1 [Example 1020, (R)-8-(4-acryloylpiperazin-1-yl)-11-(3-chloro-4-fluorophenyl)-3-(2-methoxyethoxy)-10-(trifluoromethyl)-3,4-dihydro-2H,6H-[1,4]thiazepino[2,3,4-ij]quinazolin-6-one] | – | 97
22 | C=CC(=O)N1CCN(c2nc(=O)n3c4c(c(-c5ccc(F)c(Cl)c5)c(C(F)(F)F)cc24)SC[C@@H](OCCOC)C3)CC1 [Example 1021, (S)-8-(4-acryloylpiperazin-1-yl)-11-(3-chloro-4-fluorophenyl)-3-(2-methoxyethoxy)-10-(trifluoromethyl)-3,4-dihydro-2H,6H-[1,4]thiazepino[2,3,4-ij]quinazolin-6-one] | – | 97
23 | C=CC(=O)N1CCN(c2nc(=O)n3c4c(c(-c5cc(Cl)c(F)cc5F)c(C(F)(F)F)cc24)SC[C@H](OCCOC)C3)CC1 [Example 1022, (3R)-8-(4-acryloylpiperazin-1-yl)-11-(5-chloro-2,4-difluorophenyl)-3-(2-methoxyethoxy)-10-(trifluoromethyl)-3,4-dihydro-2H,6H-[1,4]thiazepino[2,3,4-ij]quinazolin-6-one] | – | 85
